Counter-ions that a name gives are not always drawn. Some results are limits rather than exact numbers.

This is an account of results in patent publication US6008233A, “(1S,2S)-1-(4-hydroxyphenyl)-2-(4- hydroxy-4-phenylipiperidin-1-yl)-1-propanolmethanesulfonate trihydrate” (Pfizer Inc, priority 1998, dated 1999).

Data set [1] is described as follows: Hygroscopicity at 0%, 52% and 98% controlled relative humidities and under ambient laboratory conditions. Type of data set: physicochemical.
The nature of data set [2]: Hygroscopicity at ambient conditions of the anhydrous mesylate salt (Table 3). Type of data set: physicochemical. From the text:
HYGROSCOPICITY AT AMBIENT CONDITIONS OF THE ANHYDROUS MESYLATE SALT

Data set [3] can be described thus: Equilibration of the anhydrous mesylate in an 81% RH environment. Type of data set: physicochemical. As to conditions: equilibrated in an 81% RH environment. From the text:
FIG. 1 depicts the X-ray powder diffraction spectrum of the mesylate trihydrate (taken on a Siemens D 5000 diffractometer after equilibration of the anhydrous mesylate at 81% relative humidity ("RH")), expressed as intensity (CPS) versus diffraction angle (two-theta degrees).

In data set [4] the test system is NMDA (N-methyl-D-aspartic acid) receptor. The experiment in a line: NMDA receptor antagonist activity. The settings on record: in words.
A further data set relates to hippocampal cells. Kind of data set: Neuroprotective activity: glutamate toxicity in cultured fetal rat hippocampal cells (LDH release). As to conditions: in words. Type of data set: cell-based. The method, then: The preferred procedure for evaluating the neuroprotective activity of this compound is that described by Ismail A. Shalaby, et al., in J. Pharm. and Experimental Therapeutics, 260, 925 (1992). This article is incorporated herein by reference in its entirety and described below.
Cell culture. […]
Glutamate toxicity. The cultures are assessed for glutamate toxicity 2 to 3 weeks from initial plating. […]
Cell viability is routinely assessed 20 to 24 hours after the excitotoxin exposure by measuring the activity of the cytosolic enzyme LDH. LDH activity is determined from the culture medium of each of the 96 wells of the microtiter plates. […] The 340 nm absorbance of the total reaction mixture for each of the 96 wells is monitored every 5 sec for 2 min by an automated spectrophotometric microtiter plate reader (Molecular Devices; Menlo Park, Calif.). The rate of absorbance is automatically calculated using an IBM SOFTmax program (version 1.01; Molecular Devices) and is used as the index of LDH activity.
Morphological assessment of neuronal viability is determined using phrase contrast microscopy. […] Quantitatively, both culture platings are equally sensitive to glutamate toxicity, and display 2- to 3-fold increases in LDH activity 24 hours after exposure to 0.1 to 1.0 mM glutamate. […]
In general terms: LDH leaks from cells whose membrane has failed.

The nature of data set [5]: Stability of crystalline form and shelf life compared to the anhydrous mesylate. The data set is classed as physicochemical. The settings on record: compared with the corresponding anhydrous salt.
The nature of data set [6]: Bulk stability samples stored in polyethylene bags. The data set is classed as physicochemical. As to conditions: 40° C./30% RH, 9 months. The method, then: Weight loss was also observed in bulk stability samples stored in polyethylene bags at 40° C./30% RH (>10% of weight was lost in 9 months).

As to `CC(C(O)c1ccc(O)cc1)N1CCC(O)(c2ccccc2)CC1` (centres unmarked) [anhydrous mesylate], the “re-equilibration to the hydrated form” value in data set [1] (anhydrous form exposed to higher humidities) is reported as “quickly equilibrated to the hydrated form”. Moreover, the “% Difference from Initial” value in data set [2] (1 hours since initial) worked out at 0.06%; in data set [2] (3.5 hours since initial) it was 0.06%; in data set [2] (22 hours since initial) it was 0.32%; in data set [2] (30.5 hours since initial), 0.56%; in data set [2] (45.5 hours since initial) it was 1.93%; in data set [2] (98 hours since initial) it was 2.57%. In addition, the “% Difference from Initial” value in data set [2] (170 hours since initial) worked out at 3.94%; in data set [2] (194 hours since initial), 3.94%; in data set [2] (215 hours since initial) it was 3.96%; in data set [2] (246 hours since initial) it was 4.22%; in data set [2] (382 hours since initial), 4.60%; in data set [2] (408 hours since initial), 4.40%. Moreover, in data set [2] (533 hours since initial), the “% Difference from Initial” value is reported as 4.40%. Further, the “% Difference from Prev. Weighing” value turned out to be 0.06% in data set [2] (1 hours since initial); 0.00% in data set [2] (3.5 hours since initial); 0.26% in data set [2] (22 hours since initial); 0.24% in data set [2] (30.5 hours since initial); 1.36% in data set [2] (45.5 hours since initial); 0.63% in data set [2] (98 hours since initial). In addition, the “% Difference from Prev. Weighing” value in data set [2] (170 hours since initial) was 1.33%; in data set [2] (194 hours since initial), 0.00%; in data set [2] (215 hours since initial), 0.02%; in data set [2] (246 hours since initial) it was 0.25%; in data set [2] (382 hours since initial) it was 0.37%; in data set [2] (408 hours since initial) it was -0.19%. In data set [2] (533 hours since initial), the “% Difference from Prev. Weighing” value came to 0.00%. The “Weight of Sample” value in data set [2] (1 hours since initial) was 0.4977 g; in data set [2] (3.5 hours since initial), 0.4977 g; in data set [2] (22 hours since initial), 0.4990 g; in data set [2] (30.5 hours since initial) it was 0.5002 g; in data set [2] (45.5 hours since initial), 0.5070 g; in data set [2] (98 hours since initial) it was 0.5102 g. The “Weight of Sample” value stood at 0.5170 g in data set [2] (170 hours since initial); 0.5170 g in data set [2] (194 hours since initial); 0.5171 g in data set [2] (215 hours since initial); 0.5184 g in data set [2] (246 hours since initial); 0.5203 g in data set [2] (382 hours since initial); 0.5193 g in data set [2] (408 hours since initial). Also, the results for the “Weight of Sample” value in data set [2] (533 hours since initial) and in data set [2] (initial) were 0.5193 g and 0.4974 g, respectively. For the same compound, the “weight gain at ambient conditions” value in data set [2] (summary in words) is listed as “substantial weight gain”. For the same compound, the “conversion to the mesylate salt trihydrate” value in data set [3] is “will convert to the mesylate salt trihydrate”.

Take `C[C@@H]([C@@H](O)c1ccc(O)cc1)N1CCC(O)(c2ccccc2)CC1` [free base, (1S,2S)-1-(4-hydroxyphenyl)-2-(4-hydroxy-4-phenylpiperidin-1-yl)-1-propanol]: the “activity as NMDA receptor antagonist” value in data set [4] was “exhibit activity as NMDA (N-methyl-D-aspartic acid) receptor antagonists”. Besides, the neuroprotective activity result with hippocampal cells is on record as “possesses selective neuroprotective activity”.

`CC(C(O)c1ccc(O)cc1)N1CCC(O)(c2ccccc2)CC1` [mesylate salt trihydrate, (1S,2S)-1-(4-hydroxyphenyl)-2-(4-hydroxy-4-phenylpiperidin-1-yl)-1-propanol methanesulfonate trihydrate]: the “loss of waters of hydration” value in data set [1] (0% RH) was “Loss of waters of hydration is observed”. The weight change result in data set [1] (52% RH) is given as “No weight change”; in data set [1] (98% RH) it was “No weight change”; in data set [1] (ambient laboratory conditions (24-27° C., 31-64% RH's)) it was “No weight change”. Moreover, in data set [1] (exposure to higher humidities after 0% RH), the “reversibility of weight loss observed at 0% RH” value was “reversible”. In data set [5], the “breakdown of the crystal structure” value is given as “less subject to breakdown of the crystal structure”. Further, the shelf life entry in data set [5] is listed as “substantially longer shelf life”. Further, in data set [5], the “stability of crystalline form” value is listed as “more stable crystalline form than the corresponding anhydrous salt”. In addition, the weight lost in data set [6] is listed as > 10%. The “activity as NMDA receptor antagonist” value in data set [4] is listed as “exhibit activity as NMDA (N-methyl-D-aspartic acid) receptor antagonists”. Moreover, the neuroprotective activity entry in the data set on hippocampal cells was “possesses selective neuroprotective activity”.
